From ChEMBL document CHEMBL4346657, “Anticancer activity, dual prooxidant/antioxidant effect and apoptosis induction profile of new bichalcophene-5-carboxamidines” (Eur J Med Chem, 2019)
Active and inactive are the calls of the source. The calls are words filed in the database; no cut-off is given here.

How the values were obtained:
Malme-3M = experiment: Antiproliferative activity against human MALME-3M cells assessed as growth inhibition after 48 hrs by sulforhodamine B assay; type: functional
SNB-75 = experiment: Antiproliferative activity against human SNB75 cells assessed as growth inhibition after 48 hrs by sulforhodamine B assay; type: functional; details: SNB-75, 48 h
MDA-MB-468 = experiment: Antiproliferative activity against human MDA-MB-468 cells assessed as growth inhibition after 48 hrs by sulforhodamine B assay; type: functional; details: MDA-MB-468, 48 h
MOLT-4 = experiment: Antiproliferative activity against human MOLT4 cells assessed as growth inhibition after 48 hrs by sulforhodamine B assay; type: functional; details: MOLT-4, 48 h
Erythrocyte [1] = experiment: Haemolytic activity in human erythrocytes assessed as induction of hemolysis at 1.25 mM after 30 mins relative to H202; type: cell-based; details: erythrocyte, 0.5 h, 1250 µM
Hs-578T = experiment: Antiproliferative activity against human Hs578T cells assessed as growth inhibition after 48 hrs by sulforhodamine B assay; type: functional
WI-38 = experiment: Cytotoxicity activity against human WI38 cells assessed as reduction in cell viability measured after 48 hrs by MTT assay; type: cell-based; details: WI-38, 48 h
[2] = Pro-oxidant activity assessed as increase in bleomycin-Fe2+ induced calf thymus DNA damage at 2 mM after 1 hr by thiobarbituric acid based absorbance analysis
NCI/ADR-RES = experiment: Antiproliferative activity against human NCI-ADR-RES cells assessed as growth inhibition after 48 hrs by sulforhodamine B assay; type: functional
HCT-116 [3] = experiment: Antiproliferative activity against human HCT116 cells assessed as growth inhibition after 48 hrs by sulforhodamine B assay; type: functional; details: HCT-116, 48 h
SK-MEL-2 = experiment: Antiproliferative activity against human SK-MEL-2 cells assessed as growth inhibition after 48 hrs by sulforhodamine B assay; type: functional; details: SK-MEL-2, 48 h
SF-539 = experiment: Antiproliferative activity against human SF539 cells assessed as growth inhibition after 48 hrs by sulforhodamine B assay; type: functional; details: SF-539, 48 h
U-251 = experiment: Antiproliferative activity against human U251 cells assessed as growth inhibition after 48 hrs by sulforhodamine B assay; type: functional; details: U-251, 48 h
[4] = Antioxidant activity assessed as DPPH radical scavenging activity incubated in dark for 30 mins by spectrophotometric method relative to control; type: functional; parameters: concentration or dose not given beside the values
MCF7 = experiment: Antiproliferative activity against human MCF7 cells assessed as growth inhibition after 48 hrs by sulforhodamine B assay; type: functional; details: MCF7, 48 h
MDA-MB-231 = experiment: Antiproliferative activity against human MDA-MB-231/ATCC cells assessed as growth inhibition after 48 hrs by sulforhodamine B assay; type: functional; details: MDA-MB-231, 48 h
IGROV-1 = experiment: Antiproliferative activity against human IGROV1 cells assessed as growth inhibition after 48 hrs by sulforhodamine B assay; type: functional; details: IGROV-1, 48 h
CCRF-CEM = experiment: Antiproliferative activity against human CCRF-CEM cells assessed as growth inhibition after 48 hrs by sulforhodamine B assay; type: functional
HCC 2998 = experiment: Antiproliferative activity against human HCC2998 cells assessed as growth inhibition after 48 hrs by sulforhodamine B assay; type: functional; details: HCC 2998, 48 h
NCI-H522 = experiment: Antiproliferative activity against human NCI-H522 cells assessed as growth inhibition after 48 hrs by sulforhodamine B assay; type: functional; details: NCI-H522, 48 h
[5] = Haemolytic activity in human erythrocytes assessed as induction of hemolysis at 10 mM after 30 mins relative to H202; type: cell-based, Erythrocyte; details: read-out: Activity
K562 = experiment: Antiproliferative activity against human K562 cells assessed as growth inhibition after 48 hrs by sulforhodamine B assay; type: functional, cell-based; details: K562, 48 h, read-out: IC50
A549 = experiment: Antiproliferative activity against human A549/ATCC cells assessed as growth inhibition after 48 hrs by sulforhodamine B assay; type: functional; details: A549, 48 h
HCT-116 [6] = experiment: […] in CDK1 mRNA expression in human HCT116 cells at 100 nM after 6 hrs hrs by SYBR green dye-based qRT-PCR analysis relative to control; type: functional
Erythrocyte [7] = experiment: Haemolytic activity in human erythrocytes assessed as induction of hemolysis at 0.625 mM after 30 mins relative to H202; type: cell-based; details: erythrocyte, 0.5 h, 625 µM
MDA-MB-435 = experiment: Antiproliferative activity against human MDA-MB-435 cells assessed as growth inhibition after 48 hrs by sulforhodamine B assay; type: functional; details: MDA-MB-435, 48 h
SK-MEL-28 = experiment: Antiproliferative activity against human SK-MEL-28 cells assessed as growth inhibition after 48 hrs by sulforhodamine B assay; type: functional; details: SK-MEL-28, 48 h
BT-549 = experiment: Antiproliferative activity against human BT549 cells assessed as growth inhibition after 48 hrs by sulforhodamine B assay; type: functional; details: BT-549, 48 h
RPMI-8226 = experiment: Antiproliferative activity against human RPMI8226 cells assessed as growth inhibition after 48 hrs by sulforhodamine B assay; type: functional; details: RPMI-8226, 48 h
[8] = Antioxidant activity assessed as ABTS radical scavenging activity by spectrophotometric method relative to ascorbic acid; type: functional
COLO 205 = experiment: Antiproliferative activity against human COLO205 cells assessed as growth inhibition after 48 hrs by sulforhodamine B assay; type: functional; details: COLO 205, 48 h
SNB-19 = experiment: Antiproliferative activity against human SNB19 cells assessed as growth inhibition after 48 hrs by sulforhodamine B assay; type: functional; details: SNB-19, 48 h
OVCAR-4 = experiment: Antiproliferative activity against human OVCAR4 cells assessed as growth inhibition after 48 hrs by sulforhodamine B assay; type: functional; details: OVCAR-4, 48 h
[9] = Haemolytic activity in human erythrocytes assessed as induction of hemolysis at 5 mM after 30 mins relative to H202; type: cell-based, Erythrocyte; details: read-out: Activity
SK-MEL-5 = experiment: Antiproliferative activity against human SK-MEL-5 cells assessed as growth inhibition after 48 hrs by sulforhodamine B assay; type: functional; details: SK-MEL-5, 48 h
NCI-H226 = experiment: Antiproliferative activity against human NCI-H226 cells assessed as growth inhibition after 48 hrs by sulforhodamine B assay; type: functional; details: NCI-H226, 48 h
TK-10 = experiment: Antiproliferative activity against human TK10 cells assessed as growth inhibition after 48 hrs by sulforhodamine B assay; type: functional; details: TK-10, 48 h
UACC-257 = experiment: Antiproliferative activity against human UACC257 cells assessed as growth inhibition after 48 hrs by sulforhodamine B assay; type: functional; details: UACC-257, 48 h
SW-620 = experiment: Antiproliferative activity against human SW620 cells assessed as growth inhibition after 48 hrs by sulforhodamine B assay; type: functional; details: SW-620, 48 h
[10] = tested on: Panel NCI-60 (60 carcinoma cell lines); experiment: Antiproliferative activity against human NCI60 cells assessed as growth inhibition at 10 uM after 48 hrs by sulforhodamine B assay; type: functional; details: read-out: GI
786-0 = experiment: Antiproliferative activity against human 786-0 cells assessed as growth inhibition after 48 hrs by sulforhodamine B assay; type: functional; details: 786-0, 48 h
NCI-H322M = experiment: Antiproliferative activity against human NCI-H322M cells assessed as growth inhibition after 48 hrs by sulforhodamine B assay; type: functional

N=C(N)c1ccc(-c2ccc(-c3ccc(F)cc3)o2)o1
GI50 (Malme-3M): 1630 nM | GI50 (SNB-75): 1550 nM | GI50 (MDA-MB-468): 1360 nM | GI50 (MOLT-4): 1600 nM | Activity (Erythrocyte [1]): Non-Toxic | GI50 (Hs-578T): 1950 nM | IC50 (WI-38): 10.6 µM | Activity [2]: Active | GI50 (NCI/ADR-RES): 1680 nM | GI50 (HCT-116 [3]): 1180 nM | GI50 (SK-MEL-2): 1760 nM | GI50 (SF-539): 1630 nM | GI50 (U-251): 1600 nM | inhibition [4]: 9.9% | GI50 (MCF7): 680 nM | GI50 (MDA-MB-231): 1570 nM | GI50 (IGROV-1): 1580 nM | GI50 (CCRF-CEM): 1840 nM | GI50 (HCC 2998): 1370 nM | GI50 (NCI-H522): 1360 nM | hemolysis at 0.5 h, 10000 µM [5]: 90% | IC50 (K562): 490 nM | GI50 (A549): 1650 nM | fold change (FC) (HCT-116 [6]): 1.07 | Activity (Erythrocyte [7]): Non-Toxic | GI50 (MDA-MB-435): 350 nM | GI50 (SK-MEL-28): 1630 nM | GI50 (BT-549): 2270 nM | GI50 (RPMI-8226): 2480 nM | fold change (FC) [8]: 0.1 | GI50 (COLO 205): 1600 nM | GI50 (SNB-19): 1730 nM | GI50 (OVCAR-4): 1620 nM | hemolysis at 0.5 h, 5000 µM [9]: 66.3% | GI50 (SK-MEL-5): 1560 nM | GI50 (NCI-H226): 2820 nM | GI50 (TK-10): 1550 nM | GI50 (UACC-257): 1980 nM | GI50 (SW-620): 940 nM | inhibition of growth at 10 µM [10]: 83.8% | GI50 (786-0): 1660 nM | GI50 (NCI-H322M): 1600 nM

N=C(N)c1ccc(-c2ccc(-c3ccc(F)cc3)s2)s1
GI50 (Malme-3M): 1810 nM | GI50 (SNB-75): 1480 nM | GI50 (MDA-MB-468): 2040 nM | GI50 (MOLT-4): 1520 nM | Activity (Erythrocyte [1]): Non-Toxic | GI50 (Hs-578T): 2190 nM | IC50 (WI-38): 13.3 µM | Activity [2]: Active | GI50 (NCI/ADR-RES): 1790 nM | GI50 (HCT-116 [3]): 1730 nM | GI50 (SK-MEL-2): 1810 nM | GI50 (SF-539): 1670 nM | GI50 (U-251): 1800 nM | inhibition [4]: 44.8% | GI50 (MCF7): 1150 nM | GI50 (MDA-MB-231): 1740 nM | GI50 (IGROV-1): 1730 nM | GI50 (CCRF-CEM): 1850 nM | GI50 (HCC 2998): 1730 nM | GI50 (NCI-H522): 1820 nM | hemolysis at 0.5 h, 10000 µM [5]: 93.3% | IC50 (K562): 1210 nM | GI50 (A549): 1930 nM | fold change (FC) (HCT-116 [6]): 0.89 | Activity (Erythrocyte [7]): Non-Toxic | GI50 (MDA-MB-435): 1590 nM | GI50 (SK-MEL-28): 1730 nM | GI50 (BT-549): 1890 nM | GI50 (RPMI-8226): 2100 nM | fold change (FC) [8]: 0.5 | GI50 (COLO 205): 1320 nM | GI50 (SNB-19): 1970 nM | GI50 (OVCAR-4): 1680 nM | hemolysis at 0.5 h, 5000 µM [9]: 59.7% | GI50 (SK-MEL-5): 1810 nM | GI50 (NCI-H226): 1420 nM | GI50 (TK-10): 1720 nM | GI50 (UACC-257): 2190 nM | GI50 (SW-620): 1740 nM | inhibition of growth at 10 µM [10]: -25.8% | GI50 (786-0): 1810 nM | GI50 (NCI-H322M): 1630 nM

COc1ccc2cc(-c3ccc(-c4ccc(C(=N)N)s4)s3)ccc2c1
GI50 (Malme-3M): 3320 nM | GI50 (SNB-75): 10400 nM | GI50 (MDA-MB-468): 2340 nM | GI50 (MOLT-4): 2170 nM | Activity (Erythrocyte [1]): Non-Toxic | GI50 (Hs-578T): 16600 nM | IC50 (WI-38): 80.5 µM | Activity [2]: Active | GI50 (NCI/ADR-RES): 2290 nM | GI50 (HCT-116 [3]): 2080 nM | GI50 (SK-MEL-2): 2660 nM | GI50 (SF-539): 3910 nM | GI50 (U-251): 1830 nM | inhibition [4]: 43% | GI50 (MCF7): 1910 nM | GI50 (MDA-MB-231): 2460 nM | GI50 (IGROV-1): 2270 nM | GI50 (CCRF-CEM): 1510 nM | GI50 (HCC 2998): 3350 nM | GI50 (NCI-H522): 1920 nM | hemolysis at 0.5 h, 10000 µM [5]: 18.7% | IC50 (K562): 1180 nM | GI50 (A549): 2220 nM | fold change (FC) (HCT-116 [6]): 0.93 | Activity (Erythrocyte [7]): Non-Toxic | GI50 (MDA-MB-435): 2010 nM | GI50 (SK-MEL-28): 2500 nM | GI50 (BT-549): 17600 nM | GI50 (RPMI-8226): 2160 nM | fold change (FC) [8]: 0.6 | GI50 (COLO 205): 2040 nM | GI50 (SNB-19): 2130 nM | GI50 (OVCAR-4): 1820 nM | hemolysis at 0.5 h, 5000 µM [9]: 11.3% | GI50 (SK-MEL-5): 16100 nM | GI50 (NCI-H226): 23600 nM | GI50 (TK-10): 14200 nM | GI50 (UACC-257): 19600 nM | GI50 (SW-620): 1910 nM | inhibition of growth at 10 µM [10]: 95.3% | GI50 (786-0): 2040 nM | GI50 (NCI-H322M): 2020 nM
